Test system: NCI-H69 (small cell lung cancer) tumors
Assay: Antitumor efficacy in mice bearing NCI-H69 tumors
Assay type: in vivo
Settings: Conjugate 1 12.5 mpk once per week IV, Talazoparib 0.33 mpk PO daily 4 days on/three days off, combo: Talazoparib starting 24 hrs post Conjugate 1 dose, tumor volumes measured up to 16 days after treatment
Experimental: Mice bearing NCI-H69 (small cell lung cancer) tumors were treated with the following.
1). Vehicle controls; 2). 12.5 mpk (mg per kilogram) of Conjugate 1 once per week via intravenous administration (IV); 3). 0.33 mpk Talazoparib daily for 4 days on/three days off via oral administration (PO); 4). 12.5 mpk Conjugate 1 once per week via IV, and 0.33 mpk Talazoparib daily for 4 days on/three days off starting 24 hrs post Conjugate 1 dose.
Tumor volumes were measured 3 days, 8 days, 10 days, 13 days and 16 days after treatment.

Row | Structure (SMILES) | Tumor Growth Inhibition (TGI %)
1 | CCc1c2c(nc3ccc(OC(=O)N4CCC(CCn5ccc6cc(-n7c(O)nnc7-c7cc(C(C)C)c(O)cc7O)ccc65)CC4)cc13)-c1cc3c(c(=O)n1C2)COC(=O)[C@]3(O)CC [Conjugate 1, (S)-4,11-diethyl-4-hydroxy-3,14-dioxo-3,4,12,14-tetrahydro-1H-pyrano[3′,4′:6,7]indolizino[1,2-b]quinolin-9-yl 4-(2-(5-(3-(2,4-dihydroxy-5-isopropylphenyl)-5-hydroxy-4H-1,2,4-triazol-4-yl)-1H-indol-1-yl)ethyl)piperidine-1-carboxylate] | 50.67%
2 | Cn1ncnc1[C@H]1c2n[nH]c(=O)c3cc(F)cc(c23)N[C@@H]1c1ccc(F)cc1 [Talazoparib, talazoparib] | 15.66%
